We go through five molecules from patent publication US12583871B2, “PRMT5 inhibitors” (MERCK SHARP & DOHME LLC, priority 2019, dated 2026).

Molecules are shown by their SMILES. Read-outs that look alike come from different tables or passages of the source.

Test [1] has as its target T1, PRMT5-MEP50 enzyme complex (Homo sapiens, UniProt O14744).
T1 construct: 1.25 nM of Full-length (FL)-PRMT5-MEP50 enzyme complex; made in house; host or cells: baculovirus-transfected Sf21 cells
In words: PRMT5-MEP50 Enzyme Methylation Assay. The format is biochemical. The following applies: recombinant FL-PRMT5-MEP50, biotinylated H4R3(Me1) peptide, 15 μM SAM. The procedure: PRMT5-MEP50 Enzyme Methylation Assay
PRMT5-MEP50 biochemical assay is a direct measurement of the methylation activity of the enzyme complex on a short peptide substrate derived from the N-terminus of H4 histone. Methylation experiment was performed with recombinant PRMT5-MEP50 protein complex. The assessment of inhibitory effect of small molecules was measured by the effectiveness of the compounds to inhibit this reaction (EC50).
In this assay, the potency (EC50) of each compound was determined from a twenty-point (1:2 serial dilution; top compound concentration of 100000 nM) titration curve using the following outlined procedure. To each well of a white ProxiPlus 384 well-plate, 100 nL of compound (1% DMSO in final assay volume of 10 μL) was dispensed, followed by the addition of 8 μL of 1× assay buffer (50 mM Bicine pH 8.0, 1 mM DTT, 0.004% Tween20, 0.01% BSA) containing 1.25 nM of Full-length (FL)-PRMT5-MEP50 enzyme complex (recombinant proteins from baculovirus-transfected Sf21 cells: FL-PRMT5; MW=[…] and FL-MEP50; MW=38614) and 1 μL of 150 μM S-(5′-Adenosyl)-L-Methionine Chloride (SAM). Plates were sealed and placed in a 37° C. humidified chamber for a 60 minutes pre-incubation with compound. Subsequently, each reaction was initiated by the addition of 1 μL 1× assay buffer containing 750 nM biotinylated H4R3(Me1) peptide. The final reaction in each well of 10 μL consists of 1.0 nM PRMT5-MEP50, 75 nM biotinylated-peptide, and 15 μM SAM. Methylation reactions were allowed to proceed for 150 minutes in a sealed plate at 37° C. Reactions were immediately quenched by the addition of 1 μL of 5% formic acid. Plates were then frozen and shipped to SAMDI™ Tech Inc. to determine the percent conversion from H4R3(Me1) to H4R3(Me2). Dose-response curves were generated by plotting percent effect (% product conversion; Y-axis) vs. Log 10 compound concentrations (X-axis). EC50 values were determined by non-linear regression according to models for sigmoidal (4 parameters) dose-response curves.

Test [2] addresses T2, PRMT5 (symmetric dimethylation of arginine (SDMA) of PRMT5 substrates) in MCF-7 cells (Homo sapiens, UniProt O14744).
T2 construct: endogenous in cells; host or cells: MCF-7 cells
In words: PRMT5 Cell Target Engagement (TE) Assay. It is filed as cell-based. To be noted: 3 days treatment, nuclear SDMA by high content imaging. The source says:
PRMT5 Cell Target Engagement (TE) Assay
The PRMT5 TE assay is a biomarker assay for identifying compounds that inhibit symmetric dimethylation of arginine (SDMA) of PRMT5 substrates. The following substrates have been reported for PRMT5: histone H2A and H4 R3, Histone H3 R2, Histone H3 R8, spliceosome Sm proteins, ribosomal protein RPS10, p53, FEN1, nucleoplasmin, nucleolin, EGFR and EBNA. The assay focuses on detecting symmetrically dimethylated nuclear proteins using high content imaging technology. Detection of the expression of symmetrically dimethylated nuclear proteins is through a mixture of primary rabbit monoclonal antibodies to SDMA (CST 13222), which in turn recognized by an Alexafluor 488 dye-conjugated anti-rabbit IgG secondary antibody. The IN Cell Analyzer 2200 or Opera-Phenix measures nuclear Alexafluor 488 fluorescent dye intensity that is directly related to the level of expression of symmetrically dimethylated nuclear proteins at the single cell level. Nuclear AF488 dye intensities are compared to the mean value for DMSO treated cells (MIN) to report percent of inhibition for each compound-treated well.
In this assay, the cell potency (EC50) of each compound was determined from a ten point (1:3 serial dilution; top compound concentration of 10000 nM) titration curve using the following outlined procedure. Each well of a BD falcon collagen coated black/clear bottom 384-well plate was seeded with 4000 MCF-7 cells in 30 μl media and allowed to attach for 5 h. Media is ATCC-formulated Eagle's Minimum Essential Medium, Catalog No. 30-2003. To make the complete growth medium, the following components were added to the base medium: 0.01 mg/mL human recombinant insulin; fetal bovine serum to a final concentration of 10%. Additional 30 μl of media containing 2× compounds were added to each well. Cells were treated for 3 days in 37° C. CO2 incubator. On day 3, cells were fixed with Cytofix, permeablized with 0.4% Triton-X-100/Cytofix, and washed with D-PBS without Ca/Mg. Cells were blocked with Licor Odessey blocking reagent for 1 h at room temperature, followed by incubation with anti-SDMA (1:1000) antibody at 4° C. overnight. 1° antibody was removed, followed by three washings with DPBS without Ca/Mg and 0.05% Tween20. Hoechst (5 μg/mL), Cell Mask deep stain (1:2000) and Alexa488-conjugated goat anti-rabbit IgG (2 μg/mL) was added for 1 h at room temperature. A final washing step (three washes) was performed before sealing plate for imaging on In Cell Analyzer 2200 or Opera-Phenix. Images from analyzer were uploaded to Columbus (at WP or BOS) for image analysis. IC50 values were determined by 4 parameters robust fit of percent fluorescence units vs. (Log10) compound concentrations.

[3] abbreviates: only EC50 (4 parameters single site sigmoidal model) or first EC50 of 7 parameters biphasic model, read-out: Enzyme Methylation Assay (EC50).
The mark [4] stands for this setting: second EC50 of 7 parameters biphasic model, read-out: Enzyme Methylation Assay (EC50, nM), second EC50.

T1 sequence (O14744 whole entry): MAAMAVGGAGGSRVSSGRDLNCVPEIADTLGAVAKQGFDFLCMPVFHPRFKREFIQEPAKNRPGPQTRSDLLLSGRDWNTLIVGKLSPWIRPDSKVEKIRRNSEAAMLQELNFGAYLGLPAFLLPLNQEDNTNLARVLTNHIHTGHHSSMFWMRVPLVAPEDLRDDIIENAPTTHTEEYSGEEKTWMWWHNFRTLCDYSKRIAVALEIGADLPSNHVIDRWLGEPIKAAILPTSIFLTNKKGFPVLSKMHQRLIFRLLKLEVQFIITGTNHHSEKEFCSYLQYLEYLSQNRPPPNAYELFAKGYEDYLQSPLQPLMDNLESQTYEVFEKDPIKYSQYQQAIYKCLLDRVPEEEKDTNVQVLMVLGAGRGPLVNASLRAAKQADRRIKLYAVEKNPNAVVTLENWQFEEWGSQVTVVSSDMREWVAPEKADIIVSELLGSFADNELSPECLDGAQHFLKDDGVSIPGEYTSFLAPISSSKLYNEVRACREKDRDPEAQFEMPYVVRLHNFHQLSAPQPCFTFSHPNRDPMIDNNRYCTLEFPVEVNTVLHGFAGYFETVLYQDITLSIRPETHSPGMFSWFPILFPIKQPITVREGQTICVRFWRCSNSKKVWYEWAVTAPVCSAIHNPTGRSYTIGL
T1 sequence (Q9BQA1 whole entry partner): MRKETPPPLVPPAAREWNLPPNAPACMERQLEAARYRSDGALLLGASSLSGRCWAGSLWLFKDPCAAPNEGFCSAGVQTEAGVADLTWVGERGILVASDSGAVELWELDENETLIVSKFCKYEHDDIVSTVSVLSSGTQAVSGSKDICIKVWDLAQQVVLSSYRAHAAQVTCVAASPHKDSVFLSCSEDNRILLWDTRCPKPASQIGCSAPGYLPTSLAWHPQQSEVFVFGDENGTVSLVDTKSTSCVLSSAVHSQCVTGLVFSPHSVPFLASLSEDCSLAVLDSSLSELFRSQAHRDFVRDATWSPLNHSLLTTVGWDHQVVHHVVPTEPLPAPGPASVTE
T2 sequence (O14744 whole entry): as the sequence (O14744 whole entry) above
T2 sequence (Q9BQA1 whole entry partner): as the sequence (Q9BQA1 whole entry partner) above

Regarding `CO[C@@H](C)c1cc(Br)cn2cc(C(=O)N3CC[C@]4(Cc5ccccc5CN4)[C@H](O)C3)nc12` (single isomer, unassigned) [Example 2], the EC50 in test [1] (setting [3]) amounted to 0.369 nM; in test [1] (setting [4]), 114 nM; in test [2], 2.11 nM.

For `CO[C@H](C)c1cc(Br)cn2cc(C(=O)N3CC[C@]4(Cc5ccccc5CN4)[C@H](O)C3)nc12` (single isomer, unassigned) [Example 3], the EC50 came out at 0.581 nM in test [1] (setting [3]) and 1.57 nM in test [2].

As for `COCc1cc(C(F)(F)F)cn2cc(C(=O)N3CC[C@]4(Cc5ccccc5CN4)[C@H](O)C3)nc12` [Example 1, ((3R,3′R)-3′-hydroxy-1,4-dihydro-1′H,2H-spiro[isoquinoline-3,4′-piperidin]-1′-yl)[8-(methoxymethyl)-6-(trifluoromethyl)imidazo[1,2-a]pyridin-2-yl]methanone], the 50% effective concentration (EC50) in test [1] (setting [3]) was determined as 0.525 nM; in test [1] (setting [4]), 224 nM; in test [2] it was 6.23 nM.

In the case of `Cc1nc2nc(C(=O)N3CC[C@]4(Cc5ccccc5CN4)[C@H](O)C3)cn2cc1Br` [Example 4, (6-bromo-7-methylimidazo[1,2-a]pyrimidin-2-yl)[(3R,3′R)-3′-hydroxy-1,4-dihydro-1′H,2H-spiro[isoquinoline-3,4′-piperidin]-1′-yl]methanone], the figures for the EC50 in test [1] (setting [3]), in test [1] (setting [4]) and in test [2] were 0.652 nM, 280 nM and 14 nM, respectively.

Take `O=C(c1cn2cc(C3CC3)cnc2n1)N1CC[C@]2(Cc3ccccc3CN2)[C@H](O)C1` [Example 5, (6-cyclopropylimidazo[1,2-a]pyrimidin-2-yl)[(3R,3′R)-3′-hydroxy-1,4-dihydro-1′H,2H-spiro[isoquinoline-3,4′-piperidin]-1′-yl]methanone]: the values for the EC50 in test [1] (setting [3]), in test [1] (setting [4]) and in test [2] were 0.216 nM, 72.4 nM and 4.42 nM, respectively.
